# Where two headings read alike, the source gives them in different places.
# Assays:
# [1] = for Viscosity in centipoises at 1 Hr. / Viscosity in centipoises at 4 Hrs. / Viscosity in centipoises at 6 Min. / Viscosity in centipoises at 21-28 Hrs. / Viscosity in centipoises at 0: additive at 3 percent weight; for gel inhibition / stabilization of aqueous dispersion (in words): conclusion from Tables II and III
# [2] = pH of the aqueous dispersion; format: physicochemical; settings: for Initial Dispersion pH: additive at 3 percent weight in Control dispersion; for pH (MEA At 3%): 3% MEA
# [3] = thermodynamic; cited from earlier work
compound,measurement,setting,value
N.N.O=C(O)O [Ammonium carbonate],Viscosity in centipoises at 1 Hr.,"[1]; 1 Hr., listed as Ammonium carbonate (20%)",850 centipoises
same,Viscosity in centipoises at 1 Hr.,"[1]; 1 Hr., listed as Ammonium carbonate (100%)",525 centipoises
same,Viscosity in centipoises at 4 Hrs.,"[1]; 4 Hrs., listed as Ammonium carbonate (20%)",1900 centipoises
same,Viscosity in centipoises at 4 Hrs.,"[1]; 4 Hrs., listed as Ammonium carbonate (100%)",800 centipoises
same,Viscosity in centipoises at 6 Min.,"[1]; 6 Min., listed as Ammonium carbonate (20%)",575 centipoises
same,Viscosity in centipoises at 6 Min.,"[1]; 6 Min., listed as Ammonium carbonate (100%)",350 centipoises
same,Viscosity in centipoises at 21-28 Hrs.,[1]; 21-28 Hrs.,gel
same,Viscosity in centipoises at 0,"[1]; time 0, listed as Ammonium carbonate (20%)",475 centipoises
same,Viscosity in centipoises at 0,"[1]; time 0, listed as Ammonium carbonate (100%)",300 centipoises
same,longer term storage of the aqueous dispersion (in words),[1]; longer term storage,evidence of polymerization and gas evolution
N [Ammonium hydroxide],Viscosity in centipoises at 1 Hr.,[1]; 1 Hr.,550 centipoises
same,Viscosity in centipoises at 4 Hrs.,[1]; 4 Hrs.,575 centipoises
same,Viscosity in centipoises at 6 Min.,[1]; 6 Min.,400 centipoises
same,Viscosity in centipoises at 21-28 Hrs.,[1]; 21-28 Hrs.,750 centipoises
same,Viscosity in centipoises at 0,[1]; time 0,400 centipoises
same,gel inhibition / stabilization of aqueous dispersion (in words),[1],good stabilization results
OCCNCCO [Diethanolamine],Initial Dispersion pH,[2],9.0
same,Viscosity in centipoises at 1 Hr.,[1]; 1 Hr.,750 centipoises
same,Viscosity in centipoises at 4 Hrs.,[1]; 4 Hrs.,875 centipoises
same,Viscosity in centipoises at 0,[1]; time 0,600 centipoises
CN(C)C=O [Dimethyl formamide],Viscosity in centipoises at 1 Hr.,[1]; 1 Hr.,900 centipoises
same,Viscosity in centipoises at 4 Hrs.,[1]; 4 Hrs.,3100 centipoises
same,Viscosity in centipoises at 6 Min.,[1]; 6 Min.,500 centipoises
same,Viscosity in centipoises at 0,[1]; time 0,475 centipoises
O.O.O.O.O.O.O.O=P([O-])([O-])O.[Na+].[Na+] [Disodium phosphate . 7H2 O],Initial Dispersion pH,[2],7.0
same,Viscosity in centipoises at 1 Hr.,[1]; 1 Hr.,975 centipoises
same,Viscosity in centipoises at 4 Hrs.,[1]; 4 Hrs.,2100 centipoises
same,Viscosity in centipoises at 6 Min.,[1]; 6 Min.,600 centipoises
same,Viscosity in centipoises at 0,[1]; time 0,500 centipoises
O=P([O-])([O-])O.[Na+].[Na+] [Disodium phosphate anhydrous],Initial Dispersion pH,[2],7.2
same,Viscosity in centipoises at 1 Hr.,[1]; 1 Hr.,875 centipoises
same,Viscosity in centipoises at 4 Hrs.,[1]; 4 Hrs.,1900 centipoises
same,Viscosity in centipoises at 6 Min.,[1]; 6 Min.,550 centipoises
same,Viscosity in centipoises at 0,[1]; time 0,425 centipoises
"NCCN [Ethylenediamine, diaminoethane]",Viscosity in centipoises at 1 Hr.,[1]; 1 Hr.,525 centipoises
same,Viscosity in centipoises at 4 Hrs.,[1]; 4 Hrs.,500 centipoises
same,Viscosity in centipoises at 6 Min.,[1]; 6 Min.,500 centipoises
same,Viscosity in centipoises at 0,[1]; time 0,450 centipoises
same,gel inhibition / stabilization of aqueous dispersion (in words),[1],superior gel inhibitors
same,pKa at 25° C.,[3],greater than 8.0
C1N2CN3CN1CN(C2)C3 [Hexamethylene tetramine],Initial Dispersion pH,[2],6.7
same,Viscosity in centipoises at 1 Hr.,[1]; 1 Hr.,950 centipoises
same,Viscosity in centipoises at 4 Hrs.,[1]; 4 Hrs.,2000 centipoises
same,Viscosity in centipoises at 6 Min.,[1]; 6 Min.,550 centipoises
same,Viscosity in centipoises at 0,[1]; time 0,500 centipoises
"NCCO [Monoethanolamine, 2-aminoethanol]",pH (MEA At 3%),[2]; 1 Hr.,9.1
same,pH (MEA At 3%),[2]; 4 Hrs.,9.1
same,pH (MEA At 3%),[2]; 6 Min.,9.2
same,pH (MEA At 3%),[2]; 21-28 Hrs.,8.7
same,pH (MEA At 3%),[2]; time 0,9.3
same,Viscosity with Monoethanolamine (MEA),"[1]; 1.5% MEA in Control dispersion, time 0",610 Centipoises
same,Viscosity with Monoethanolamine (MEA),"[1]; 1.5% MEA, 1 Hr.",760 Centipoises
same,Viscosity with Monoethanolamine (MEA),"[1]; 1.5% MEA, 4 Hrs.",1125 Centipoises
same,Viscosity with Monoethanolamine (MEA),"[1]; 1.5% MEA, 6 Min.",625 Centipoises
same,Viscosity with Monoethanolamine (MEA),"[1]; 2% MEA in Control dispersion, time 0",650 Centipoises
same,Viscosity with Monoethanolamine (MEA),"[1]; 2% MEA, 1 Hr.",750 Centipoises
same,Viscosity with Monoethanolamine (MEA),"[1]; 2% MEA, 4 Hrs.",925 Centipoises
same,Viscosity with Monoethanolamine (MEA),"[1]; 2% MEA, 6 Min.",700 Centipoises
same,Viscosity with Monoethanolamine (MEA),"[1]; 3% MEA in Control dispersion, time 0",625 Centipoises
same,Viscosity with Monoethanolamine (MEA),"[1]; 3% MEA, 1 Hr.",700 Centipoises
same,Viscosity with Monoethanolamine (MEA),"[1]; 3% MEA, 4 Hrs.",750 Centipoises
same,Viscosity with Monoethanolamine (MEA),"[1]; 3% MEA, 6 Min.",700 Centipoises
same,Viscosity with Monoethanolamine (MEA),"[1]; 3% MEA, 21-28 Hrs.",1150 Centipoises
"C1COCCN1 [Morpholine, tetrahydro-p-oxazine]",Initial Dispersion pH,[2],8.7
same,Viscosity in centipoises at 1 Hr.,[1]; 1 Hr.,725 centipoises
same,Viscosity in centipoises at 4 Hrs.,[1]; 4 Hrs.,800 centipoises
same,Viscosity in centipoises at 6 Min.,[1]; 6 Min.,525 centipoises
same,Viscosity in centipoises at 21-28 Hrs.,[1]; 21-28 Hrs.,2700 centipoises
same,Viscosity in centipoises at 0,[1]; time 0,550 centipoises
CCN1CCOCC1 [N-Ethylmorpholine],pKa at 25° C.,[3],7.67
C1CCNCC1 [Piperidine],Initial Dispersion pH,[2],9.9
same,Viscosity in centipoises at 1 Hr.,[1]; 1 Hr.,725 centipoises
same,Viscosity in centipoises at 4 Hrs.,[1]; 4 Hrs.,800 centipoises
same,Viscosity in centipoises at 6 Min.,[1]; 6 Min.,650 centipoises
same,Viscosity in centipoises at 0,[1]; time 0,600 centipoises
[K+].[OH-] [Potassium hydroxide],Viscosity in centipoises at 21-28 Hrs.,[1]; 21-28 Hrs.,1450 centipoises
O=P(O)(O)OP(=O)(O)O [Tetrasodium pyrophosphate . 10H2 O],Viscosity in centipoises at 1 Hr.,[1]; 1 Hr.,900 centipoises
same,Viscosity in centipoises at 4 Hrs.,[1]; 4 Hrs.,1300 centipoises
same,Viscosity in centipoises at 6 Min.,[1]; 6 Min.,600 centipoises
same,Viscosity in centipoises at 0,[1]; time 0,500 centipoises
CC(O)CN(CC(C)O)CC(C)O (stereo not shown) [Triisopropanolamine],pKa at 25° C.,[3],7.86
O.O.O.O.O.O.O.O.O.O.O.O.O=P([O-])([O-])[O-].[Na+].[Na+].[Na+] [Trisodium phosphate . 12H2 O],Initial Dispersion pH,[2],7.7
same,Viscosity in centipoises at 1 Hr.,[1]; 1 Hr.,850 centipoises
same,Viscosity in centipoises at 4 Hrs.,[1]; 4 Hrs.,1500 centipoises
same,Viscosity in centipoises at 6 Min.,[1]; 6 Min.,600 centipoises
same,Viscosity in centipoises at 0,[1]; time 0,450 centipoises
NC(N)=O [Urea],Initial Dispersion pH,[2],6.6
same,Viscosity in centipoises at 1 Hr.,[1]; 1 Hr.,800 centipoises
same,Viscosity in centipoises at 4 Hrs.,[1]; 4 Hrs.,1800 centipoises
same,Viscosity in centipoises at 6 Min.,[1]; 6 Min.,650 centipoises
same,Viscosity in centipoises at 0,[1]; time 0,600 centipoises

# — patent US4145296A, “Weather-durable aqueous fire retardant stabilized against gelation” (priority 1977, dated 1979)
